Measurements as given in ChEMBL document CHEMBL1201862, “PubChem BioAssay data set” (2004).
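Five compound concentrations were applied to cells in 96-well plates for 48 hours; endpoints were derived by simple linear interpolation of the resulting dose-response curve. Here, GI50 denotes the concentration required for 50% inhibition of growth.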 Activity calls are given as the source filed them. Rule as the data show it: active = GI50 up to about 1.1 µM and inactive = higher.

Legend:
Test in all cases: inhibition of tumour cell growth, NCI panel, 48 h
CAKI-1 = tested on: CAKI-1
HCC 2998 = tested on: HCC 2998
HOP-92 = tested on: HOP-92
IGROV-1 = tested on: IGROV-1
MCF7 = tested on: MCF7
MDA-MB-435 = tested on: MDA-MB-435
MOLT-4 = tested on: MOLT-4
NCI-H23 = tested on: NCI-H23
NCI/ADR-RES = tested on: NCI/ADR-RES
OVCAR-3 = tested on: OVCAR-3
OVCAR-5 = tested on: OVCAR-5
OVCAR-8 = tested on: OVCAR-8
PC-3 = tested on: PC-3
SF-268 = tested on: SF-268
SK-MEL-28 = tested on: SK-MEL-28
SK-MEL-5 = tested on: SK-MEL-5
SN12C = tested on: SN12C
SNB-19 = tested on: SNB-19
TK-10 = tested on: TK-10
RPMI-8226 = tested on: RPMI-8226

CC[n+]1cnc(N)c2c(-c3ccc(Cl)cc3)cn(-c3ccc(C)cc3)c21
GI50 (CAKI-1): 16 µM (inactive) | GI50 (HCC 2998): 4.33 µM (inactive) | GI50 (HOP-92): 11.2 µM (inactive) | GI50 (IGROV-1): 13.1 µM (inactive) | GI50 (MCF7): 0.971 µM (active) | GI50 (MDA-MB-435): 11.5 µM (inactive) | GI50 (MOLT-4): 4.52 µM (inactive) | GI50 (NCI-H23): 19.1 µM (inactive) | GI50 (NCI/ADR-RES): 12.9 µM (inactive) | GI50 (OVCAR-3): 9.38 µM (inactive) | GI50 (OVCAR-5): 15.8 µM (inactive) | GI50 (OVCAR-8): 18.5 µM (inactive) | GI50 (PC-3): 10.5 µM (inactive) | GI50 (SF-268): 13.6 µM (inactive) | GI50 (SK-MEL-28): 9.33 µM (inactive) | GI50 (SK-MEL-5): 10.3 µM (inactive) | GI50 (SN12C): 12.3 µM (inactive) | GI50 (SNB-19): 15.5 µM (inactive) | GI50 (TK-10): 17.6 µM (inactive)

Cc1nn(-c2cc(Cl)ccc2[N+](=O)[O-])c(C)c1Cl
GI50 (CAKI-1): 83.4 µM (inactive) | GI50 (HCC 2998): 38.6 µM (inactive) | GI50 (IGROV-1): > 100 µM (inactive) | GI50 (MCF7): > 100 µM (inactive) | GI50 (MDA-MB-435): > 100 µM (inactive) | GI50 (MOLT-4): 13.6 µM (inactive) | GI50 (NCI-H23): > 100 µM (inactive) | GI50 (NCI/ADR-RES): 55.8 µM (inactive) | GI50 (OVCAR-3): > 100 µM (inactive) | GI50 (OVCAR-5): > 100 µM (inactive) | GI50 (OVCAR-8): > 100 µM (inactive) | GI50 (PC-3): 51.2 µM (inactive) | GI50 (RPMI-8226): 87.7 µM (inactive) | GI50 (SF-268): > 100 µM (inactive) | GI50 (SK-MEL-28): > 100 µM (inactive) | GI50 (SK-MEL-5): 81.7 µM (inactive) | GI50 (SN12C): > 100 µM (inactive) | GI50 (SNB-19): > 100 µM (inactive) | GI50 (TK-10): > 100 µM (inactive)

CCC(C)C(NC(=O)C(CCCC[N+](=N)N)NC(=O)C(CCCC[N+](=N)N)NC(=O)c1ccc(OC)cc1)C(=O)NC(CCCC[N+](=N)N)C(=O)N1CCCC1C(=O)NC(CCCCN)C(=O)NC(CC(C)C)C(N)=O (stereo not drawn)
GI50 (CAKI-1): > 100 µM (inactive) | GI50 (HCC 2998): > 100 µM (inactive) | GI50 (MCF7): > 100 µM (inactive) | GI50 (MDA-MB-435): > 100 µM (inactive) | GI50 (MOLT-4): > 100 µM (inactive) | GI50 (NCI-H23): > 100 µM (inactive) | GI50 (NCI/ADR-RES): > 100 µM (inactive) | GI50 (OVCAR-3): > 100 µM (inactive) | GI50 (OVCAR-5): > 100 µM (inactive) | GI50 (OVCAR-8): > 100 µM (inactive) | GI50 (PC-3): > 100 µM (inactive) | GI50 (RPMI-8226): > 100 µM (inactive) | GI50 (SF-268): > 100 µM (inactive) | GI50 (SK-MEL-28): > 100 µM (inactive) | GI50 (SK-MEL-5): > 100 µM (inactive) | GI50 (SN12C): > 100 µM (inactive) | GI50 (SNB-19): > 100 µM (inactive) | GI50 (TK-10): > 100 µM (inactive)

CC(C)/C(Cl)=N\OC(=O)Nc1ccc(F)cc1
GI50 (HCC 2998): 15.7 µM (inactive) | GI50 (IGROV-1): 14.8 µM (inactive) | GI50 (MCF7): 4.62 µM (inactive) | GI50 (MOLT-4): 1.66 µM (inactive) | GI50 (NCI-H23): 18.2 µM (inactive) | GI50 (NCI/ADR-RES): 6.9 µM (inactive) | GI50 (OVCAR-3): 8.22 µM (inactive) | GI50 (OVCAR-5): 14.6 µM (inactive) | GI50 (OVCAR-8): 12.8 µM (inactive) | GI50 (PC-3): 17.4 µM (inactive) | GI50 (RPMI-8226): 1.94 µM (inactive) | GI50 (SF-268): 24.6 µM (inactive) | GI50 (SK-MEL-28): 5.81 µM (inactive) | GI50 (SK-MEL-5): 13.6 µM (inactive) | GI50 (SN12C): 5.87 µM (inactive) | GI50 (SNB-19): 19.2 µM (inactive) | GI50 (TK-10): 4.8 µM (inactive)

COc1cc(C(=O)CBr)c(OC)cc1C
GI50 (CAKI-1): > 100 µM (inactive) | GI50 (IGROV-1): > 100 µM (inactive) | GI50 (MCF7): > 100 µM (inactive) | GI50 (MDA-MB-435): > 100 µM (inactive) | GI50 (MOLT-4): > 100 µM (inactive) | GI50 (NCI-H23): > 100 µM (inactive) | GI50 (NCI/ADR-RES): > 100 µM (inactive) | GI50 (OVCAR-5): > 100 µM (inactive) | GI50 (OVCAR-8): > 100 µM (inactive) | GI50 (PC-3): > 100 µM (inactive) | GI50 (RPMI-8226): > 100 µM (inactive) | GI50 (SF-268): > 100 µM (inactive) | GI50 (SK-MEL-28): > 100 µM (inactive) | GI50 (SK-MEL-5): 52.7 µM (inactive) | GI50 (SN12C): > 100 µM (inactive) | GI50 (SNB-19): > 100 µM (inactive) | GI50 (TK-10): > 100 µM (inactive)

COc1ccccc1-n1nnc2c(N)nc(N)nc21
GI50 (CAKI-1): > 100 µM (inactive) | GI50 (HOP-92): > 100 µM (inactive) | GI50 (IGROV-1): > 100 µM (inactive) | GI50 (MCF7): > 100 µM (inactive) | GI50 (MDA-MB-435): > 100 µM (inactive) | GI50 (MOLT-4): > 100 µM (inactive) | GI50 (NCI-H23): > 100 µM (inactive) | GI50 (NCI/ADR-RES): > 100 µM (inactive) | GI50 (OVCAR-3): > 100 µM (inactive) | GI50 (OVCAR-5): > 100 µM (inactive) | GI50 (OVCAR-8): > 100 µM (inactive) | GI50 (PC-3): > 100 µM (inactive) | GI50 (RPMI-8226): > 100 µM (inactive) | GI50 (SF-268): > 100 µM (inactive) | GI50 (SK-MEL-28): > 100 µM (inactive) | GI50 (SK-MEL-5): > 100 µM (inactive) | GI50 (SN12C): > 100 µM (inactive) | GI50 (SNB-19): > 100 µM (inactive) | GI50 (TK-10): > 100 µM (inactive)

O=C(NNC(=S)NC1CCCCC1)C12CC3CC(CC(C3)C1)C2
GI50 (CAKI-1): > 100 µM (inactive) | GI50 (HCC 2998): > 100 µM (inactive) | GI50 (IGROV-1): > 100 µM (inactive) | GI50 (MCF7): > 100 µM (inactive) | GI50 (MDA-MB-435): > 100 µM (inactive) | GI50 (MOLT-4): > 100 µM (inactive) | GI50 (NCI-H23): > 100 µM (inactive) | GI50 (NCI/ADR-RES): > 100 µM (inactive) | GI50 (OVCAR-3): > 100 µM (inactive) | GI50 (OVCAR-5): > 100 µM (inactive) | GI50 (OVCAR-8): > 100 µM (inactive) | GI50 (PC-3): > 100 µM (inactive) | GI50 (RPMI-8226): > 100 µM (inactive) | GI50 (SF-268): > 100 µM (inactive) | GI50 (SK-MEL-28): > 100 µM (inactive) | GI50 (SK-MEL-5): > 100 µM (inactive) | GI50 (SN12C): > 100 µM (inactive) | GI50 (SNB-19): > 100 µM (inactive) | GI50 (TK-10): > 100 µM (inactive)
